According to patent US12473282B2, “Biphenyl fluorine double bond derivative, preparation method therefor, and pharmaceutical application thereof” (Abbisko Therapeutics Co., Ltd., priority 2020, dated 2025):

Assay: Jurkat reporter gene cellular assay
Format: cell-based
Conditions: Homo sapiens; Jurkat/NF-κB-luc/PD1 + Raji-PD-L1 coculture, OKT3 1 μg/mL, 6 hrs, activation fold; read-out: Cell Activity EC50
Experimental: The effect of compounds of the examples of the present invention and positive compounds on the interaction between PD-1 and PD-L1 expressed on cell surfaces, and the related influence on T cell functions, were determined by a Jurkat reporter gene cellular assay.
Briefly, the reporter gene plasmid of NF-κB-luc and the plasmid of human PD-1 were transfected into Jurkat cells to establish a stably transfected cell line capable of stably expressing both PD-1 and NF-κB-Luc reporter genes; the expression level of PD-1 on the cell surface was confirmed by flow cytometry; and the expression of the reporter gene was confirmed via the response of the reporter gene stimulated by OKT-3 and Raiji cells.
In addition, the plasmid of human PD-L1 was transfected into Raji cells to obtain a cell line capable of stably expressing PD-L1. Jurkat/NF-κB-luc/PD1 cells and Raji-PD-L1 cells were then cocultured and stimulated with OKT-3. On this basis, the compounds were added, and the enhancement of the signal pathway of T cell activation by the inhibitory effect of the compounds on the interaction between PD-1 and PD-L1 was evaluated by readings of reporter gene responses. The specific experimental process was as follows: • 1. 30 μL of compound or antibody solution was added to each well of a white 96-well plate (corning, 3610) at different diluted concentrations, and 10 μL of OKT3 (Biolegend, 317326) was then added (the final concentration of OKT3: 1 μg/mL); • 2. 20 μL of Raji-PD-L1 cell suspension was added to each well with 5*10^4 cells for each well, and was incubated in an incubator for 20 min; • 3. 20 μL of Jurkat/NF-Kb-luc/PD-1 cell suspension was added to each well with 5*10^4 cells for each well, and well mixed, and 6 hrs later, Bright-glo (Promega, E2620) was applied and plates were read on Envision; • 4. The reading of each well treated with the compound was compared with the reading of each well treated with DMSO to obtain the activation fold of the compound; • 5. EC50 values of compounds and positive compounds of the examples of the present invention were determined by non-linear regression analysis of activation folds at different compound concentrations.

| EC50 [µM] | Compound |
| --- | --- |
| 0.113 | COc1cc(/C(F)=C/c2cccc(-c3cccc(NC(=O)c4nc5c(n4C)CCN(CCC46CCC(C(=O)O)(CC4)C6)C5)c3Cl)c2Cl)ncc1CN1CCC(C)(C)C1 [Example 64, (Z)-4-(2-(2-((2,2′-dichloro-3′-(2-(5-((3,3-dimethylpyrrolidin-1-yl)methyl)-4-methoxypyridin-2-yl)-2-fluorovinyl)-[1,1′-biphenyl]-3-yl)carbamoyl)-1-methyl-1,4,6,7-tetrahydro-5H-imidazo[4,5-c]pyridin-5-yl)ethyl)bicyclo[2.2.1]heptane-1-carboxylic acid] |
| 0.137 | COc1cc(/C(F)=C/c2cccc(-c3cccc(NC(=O)c4nc5c(n4C)CCN(CCC46CCC(C(=O)O)(CC4)C6)C5)c3Cl)c2Cl)ncc1CN1CCCCC1 [Example 65, (Z)-4-(2-(2-((2,2′-dichloro-3′-(2-fluoro-2-(4-methoxy-5-(piperidin-1-ylmethyl)pyridin-2-yl)vinyl)-[1,1′-biphenyl]-3-yl)carbamoyl)-1-methyl-1,4,6,7-tetrahydro-5H-imidazo[4,5-c]pyridin-5-yl)ethyl) bicyclo[2.2.1]heptane-1-carboxylic acid] |
| 0.347 | COc1cc(/C(F)=C/c2cccc(-c3cccc(NC(=O)c4nc5c(n4C)CCN(CCC46CCC(C(=O)O)(CC4)C6)C5)c3Cl)c2Cl)ncc1CN1CC[C@@H](N(C)C)C1 [Example 66, (R,Z)-4-(2-(2-((2,2′-dichloro-3′-(2-(5-((3-(dimethylamino)pyrrolidin-1-yl)methyl)-4-methoxypyridin-2-yl)-2-fluorovinyl)-[1,1′-biphenyl]-3-yl)carbamoyl)-1-methyl-1,4,6,7-tetrahydro-5H-imidazo[4,5-c]pyridin-5-yl)ethyl)bicyclo[2.2.1]heptane-1-carboxylic acid] |
| 0.0541 | COc1cc(/C(F)=C/c2cccc(-c3cccc(NC(=O)c4nc5c(n4C)CCN(CCC46CCC(C(=O)O)(CC4)C6)C5)c3Cl)c2Cl)ncc1CN1CCCC1(C)C [Example 67, (Z)-4-(2-(2-((2,2′-dichloro-3′-(2-(5-((2,2-dimethylpyrrolidin-1-yl)methyl)-4-methoxypyridin-2-yl)-2-fluorovinyl)-[1,1′-biphenyl]-3-yl)carbamoyl)-1-methyl-1,4,6,7-tetrahydro-5H-imidazo[4,5-c]pyridin-5-yl)ethyl)bicyclo[2.2.1]heptane-1-carboxylic acid] |
| 0.954 | COc1cc(/C(F)=C/c2cccc(-c3cccc(NC(=O)c4nc5c(n4C)CCN(CCC46CCC(C(=O)O)(CC4)C6)C5)c3Cl)c2Cl)ncc1CN1Cc2cccnc2C1 [Example 68, (Z)-4-(2-(2-((2,2′-dichloro-3′-(2-(5-((5,7-dihydro-6H-pyrrolo[3,4-b]pyridin-6-yl)methyl)-4-methoxypyridin-2-yl)-2-fluorovinyl)-[1,1′-biphenyl]-3-yl)carbamoyl)-1-methyl-1,4,6,7-tetrahydro-5H-imidazo [4,5-c]pyridin-5-yl)ethyl)bicyclo[2.2.1]heptane-1-carboxylic acid] |
| 0.116 | COc1cc(/C(F)=C/c2cccc(-c3cccc(NC(=O)c4nc5c(n4C)CCN(CCC46CCC(C(=O)O)(CC4)C6)C5)c3Cl)c2Cl)ncc1CN1CCO[C@@H](CO)C1 [Example 69, (R,Z)-4-(2-(2-((2,2′-dichloro-3′-(2-fluoro-2-(5-((2-(hydroxymethyl)morpholino)methyl)-4-methoxypyridin-2-yl)vinyl)-[1,1′-biphenyl]-3-yl)carbamoyl)-1-methyl-1,4,6,7-tetrahydro-5H-imidazo[4,5-c]pyridin-5-yl)ethyl)bicyclo[2.2.1]heptane-1-carboxylic acid] |
| 0.128 | COc1cc(/C(F)=C/c2cccc(-c3cccc(NC(=O)c4nc5c(n4C)CCN(CCC46CCC(C(=O)O)(CC4)C6)C5)c3Cl)c2Cl)ncc1CN1CCO[C@H](CO)C1 [Example 70, (S,Z)-4-(2-(2-((2,2′-dichloro-3′-(2-fluoro-2-(5-((2-(hydroxymethyl)morpholino)methyl)-4-methoxypyridin-2-yl)vinyl)-[1,1′-biphenyl]-3-yl)carbamoyl)-1-methyl-1,4,6,7-tetrahydro-5H-imidazo[4,5-c]pyridin-5-yl)ethyl)bicyclo[2.2.1]heptane-1-carboxylic acid] |
| 0.0421 | COc1cc(/C(F)=C/c2cccc(-c3cccc(NC(=O)c4nc5c(n4C)CCN(CCC46CCC(C(=O)O)(CC4)C6)C5)c3Cl)c2Cl)ncc1CN1CC[C@@](C)(O)C1 [Example 71, (R,Z)-4-(2-(2-((2,2′-dichloro-3′-(2-fluoro-2-(5-((3-hydroxy-3-methylpyrrolidin-1-yl)methyl)-4-methoxypyridin-2-yl)vinyl)-[1,1′-biphenyl]-3-yl)carbamoyl)-1-methyl-1,4,6,7-tetrahydro-5H-imidazo[4,5-c]pyiidin-5-yl)ethyl)bicyclo[2.2.1]heptane-1-carboxylic acid] |
| 0.116 | COc1cc(/C(F)=C/c2cccc(-c3cccc(NC(=O)c4nc5c(n4C)CCN(CCC46CCC(C(=O)O)(CC4)C6)C5)c3Cl)c2Cl)ncc1CN1CC[C@](C)(O)C1 [Example 72, (S,Z)-4-(2-(2-((2,2′-dichloro-3′-(2-fluoro-2-(5-((3-hydroxy-3-methylyrrolidin-1-yl)methyl)-4-methoxypyridin-2-yl)vinyl)-[1,1′-biphenyl]-3-yl)carbamoyl)-1-methyl-1,4,6,7-tetrahydro-5H-imidazo[4,5-c]pyridin-5-yl)ethyl)bicyclo[2.2.1]heptane-1-carboxylic acid] |
| 0.136 | COc1cc(/C(F)=C/c2cccc(-c3cccc(NC(=O)c4nc5c(n4C)CCN(CCC46CCC(C(=O)O)(CC4)C6)C5)c3Cl)c2Cl)ncc1CN1CC[C@H](C(=O)O)C1 [Example 74, (S,Z)-1-((6-(2-(3′-(5-(2-(4-carboxybicyclo[2.2.1]heptan-1-yl)ethyl)-1-methyl-4,5,6,7-tetrahydro-1H-imidazo[4,5-c]pyridine-2-carboxamido)-2,2′-dichloro-[1,1′-biphenyl]-3-yl)-1-fluorovinyl)-4-methoxypyridin-3-yl)methyl)pyrrolidine-3-carboxylic acid] |
| 0.0981 | COc1cc(/C(F)=C/c2cccc(-c3cccc(NC(=O)c4nc5c(n4C)CCN(CCC46CCC(C(=O)O)(CC4)C6)C5)c3Cl)c2Cl)ncc1CN1CC[C@](C)(C(=O)O)C1 [Example 76, (S,Z)-1-((6-(2-(3′-(5-(2-(4-carboxybicyclo[2.2.1]heptan-1-yl)ethyl)-1-methyl-4,5,6,7-tetrahydro-1H-imidazo[4,5-c]pyridine-2-carboxamido)-2,2′-dichloro-[1,1′-biphenyl]-3-yl)-1-fluorovinyl)-4-methoxypyridin-3-yl)methyl)-3-methylpyrrolidine-3-carboxylic acid] |
| 0.0544 | COc1cc(/C(F)=C/c2cccc(-c3cccc(NC(=O)c4nc5c(n4C)CCN(CCC46CCC(C(=O)O)(CC4)C6)C5)c3Cl)c2Cl)ncc1CN1CC2CCC1C2 (stereo not drawn) [Example 77, (Z)-4-(2-(2-((3′-(2-(5-((2-azabicyclo[2.2.1]heptan-2-yl)methyl)-4-methoxypyridin-2-yl)-2-fluorovinyl)-2,2′-dichloro-[1,1′-biphenyl]-3-yl)carbamoyl)-1-methyl-1,4,6,7-tetrahydro-5H-imidazo[4,5-c]pyridin-5-yl)ethyl)bicyclo[2.2.1]heptane-1-carboxylic acid] |
